Assay results published in ChEMBL document CHEMBL3886714, “Substituted 4-pyridones and their use as inhibitors of neutrophil elastase activity” (2016).

Biological target: T1, Neutrophil elastase (Homo sapiens, UniProt P08246)
T1 sequence (P08246 whole entry): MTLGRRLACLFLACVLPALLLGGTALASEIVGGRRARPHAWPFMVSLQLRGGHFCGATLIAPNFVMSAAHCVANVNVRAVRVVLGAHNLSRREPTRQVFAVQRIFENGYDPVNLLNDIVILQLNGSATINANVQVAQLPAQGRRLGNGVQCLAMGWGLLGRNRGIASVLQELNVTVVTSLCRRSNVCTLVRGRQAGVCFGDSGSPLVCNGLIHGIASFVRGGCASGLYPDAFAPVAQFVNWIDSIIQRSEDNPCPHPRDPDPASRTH
Assay: Human Neutrophil Elastase Assay: Compound buffer: 100 mM Tris, 500 mM NaCl, adjusted to pH 7.5; Assay buffer: 100 mM Tris, 500 mM NaCl, adjusted to pH 7.5, containing 0.01% BSA. Test compounds were prediluted in DMSO and subsequently in compound buffer (5% DMSO final). […] After inactivation of the enzyme, fluorescence intensities were measured at 380 nm excitation and 460 nm emission wavelengths.

SMILES | IC50 [nM]
Cc1c(-c2cccc(C(F)F)c2)c(=O)c(C(=O)NCc2ccc(S(C)(=O)=O)cc2)cn1C1CCOC1 (configuration not stated) | 27
Cc1c(-c2cccc(C(F)(F)F)c2)c(=O)c(C(=O)NCc2ccc(S(C)(=O)=O)s2)cn1C(C)C | 28
